What follows are compounds tested against T1, BTK (Homo sapiens, UniProt Q06187) (assay: In vitro BTK kinase assay: BTK-POLYGAT-LS ASSAY). Conditions: ATP 10 uM.
T1 construct: purchased Upstate 14-552
Assay type: biochemical
Procedure: In vitro BTK kinase assay: BTK-POLYGAT-LS ASSAY. The purpose of the BTK in vitro assay is to determine compound potency against BTK through the measurement of IC50. […] A 24 μL aliquot of a ATP/peptide master mix (final concentration; ATP 10 μM, polyGAT 100 nM) in kinase buffer (10 mM Tris-HCl pH 7.5, 10 mM MgCl2, 200 μM Na3VO4, 5 mM DTT, 0.01% Triton X-100, and 0.2 mg/ml Casein) is added to each well. […] The assay is incubated for 30 minutes before being stopped with 28 μL of a 50 mM EDTA solution. […] The plate is covered and incubated for 45 minutes at room temperature. Time resolved fluorescence (TRF) on Molecular Devices M5 (332 nm excitation; 488 nm emission; 518 nm fluorescein emission) is measured.

T1 sequence (Q06187 whole entry): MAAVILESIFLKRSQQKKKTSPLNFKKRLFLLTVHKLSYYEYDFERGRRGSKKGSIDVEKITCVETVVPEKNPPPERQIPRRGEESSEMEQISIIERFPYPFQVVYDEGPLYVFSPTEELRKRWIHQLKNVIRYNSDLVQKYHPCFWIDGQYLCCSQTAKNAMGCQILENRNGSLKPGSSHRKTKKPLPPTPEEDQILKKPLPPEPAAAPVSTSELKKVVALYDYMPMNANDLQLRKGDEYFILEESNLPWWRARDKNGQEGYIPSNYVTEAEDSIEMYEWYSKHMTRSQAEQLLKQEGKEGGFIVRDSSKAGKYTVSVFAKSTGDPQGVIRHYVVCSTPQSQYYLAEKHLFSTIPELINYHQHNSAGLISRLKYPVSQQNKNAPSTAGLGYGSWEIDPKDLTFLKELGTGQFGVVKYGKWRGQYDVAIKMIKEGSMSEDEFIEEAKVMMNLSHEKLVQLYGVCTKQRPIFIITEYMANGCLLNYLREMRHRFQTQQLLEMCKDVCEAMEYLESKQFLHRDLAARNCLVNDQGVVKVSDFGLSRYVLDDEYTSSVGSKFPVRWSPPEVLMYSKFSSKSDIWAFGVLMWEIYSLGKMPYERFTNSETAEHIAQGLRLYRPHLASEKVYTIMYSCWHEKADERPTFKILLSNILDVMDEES

Structure (SMILES) | IC50 [nM]
O=C(CNC(=O)Nc1ccccc1)NC1CCCN(c2ncnc3[nH]ccc23)C1 (stereo not shown) [Example 2, (N-(1-(7H-pyrrolo[2,3-d]pyrimidin-4-yl)piperidin-3-yl)-2-(3-phenylureido)acetamide)] | 100 to 999
O=C(CNC(=O)c1ccccc1)NC1CCCN(c2ncnc3[nH]ccc23)C1 (stereo not shown) [Example 3, (N-(2-(1-(7H-pyrrolo[2,3-d]pyrimidin-4-yl)piperidin-3-ylamino)-2-oxoethyl)benzamide)] | 100 to 999
O=C(Nc1ccccc1)C(=O)NC1CCCN(c2ncnc3[nH]ccc23)C1 (stereo not shown) [Example 4] | > 10000
O=C(COc1ccccc1)NC1CCCN(c2ncnc3[nH]ccc23)C1 (stereo not shown) [Example 8, (N-(1-(7H-pyrrolo[2,3-d]pyrimidin-4-yl)piperidin-3-yl)-2-phenoxyacetamide)] | 1000 to 10000
O=C(N[C@@H]1CCCN(c2ncnc3[nH]ccc23)C1)[C@H]1CCc2ccccc2N1 [Example 14, (R)—N—((R)-1-(7H-pyrrolo[2,3-d]pyrimidin-4-yl)piperidin-3-yl)-1,2,3,4-tetrahydroquinoline-2-carboxamide] | 1000 to 10000
O=C(N[C@@H]1CCCN(c2ncnc3[nH]ccc23)C1)[C@@H]1CCc2ccccc2N1 [Example 15, (S)—N—((R)-1-(7H-pyrrolo[2,3-d]pyrimidin-4-yl)piperidin-3-yl)-1,2,3,4-tetrahydroquinoline-2-carboxamide] | 1000 to 10000
CN(CC(=O)NC1CCCN(c2ncnc3[nH]ccc23)C1)c1ccccc1 (stereo not shown) [Example 16, (N-(1-(7H-pyrrolo[2,3-d]pyrimidin-4-yl)piperidin-3-yl)-2-(methyl(phenyl)amino)acetamide)] | 1000 to 10000
CC(C)(C)c1ccccc1NCC(=O)NC1CCCN(c2ncnc3[nH]ccc23)C1 (stereo not shown) [Example 17, (N-(1-(7H-pyrrolo[2,3-d]pyrimidin-4-yl)piperidin-3-yl)-2-(2-tert-butylphenylamino)acetamide)] | 1000 to 10000
CC(C)(C)c1ccc(NCC(=O)NC2CCCN(c3ncnc4[nH]ccc34)C2)cc1 (stereo not shown) [Example 19, (N-(1-(7H-pyrrolo[2,3-d]pyrimidin-4-yl)piperidin-3-yl)-2-(4-tert-butylphenylamino)acetamide)] | > 10000
O=C(CNc1cccc2c1OC(F)(F)O2)NC1CCCN(c2ncnc3[nH]ccc23)C1 (stereo not shown) [Example 25, (N-(1-(7H-pyrrolo[2,3-d]pyrimidin-4-yl)piperidin-3-yl)-2-(2,2-difluorobenzo[d][1,3]dioxol-4-ylamino)acetamide)] | < 100
CCc1cccc(CC)c1NCC(=O)NC1CCCN(c2ncnc3[nH]ccc23)C1 (stereo not shown) [Example 30, (N-(1-(7H-pyrrolo[2,3-d]pyrimidin-4-yl)piperidin-3-yl)-2-(2,6-diethylphenylamino)acetamide)] | 1000 to 10000
O=C(CNc1cc(Cl)ccc1Cl)NC1CCCN(c2ncnc3[nH]ccc23)C1 (stereo not shown) [Example 35, (N-(1-(7H-pyrrolo[2,3-d]pyrimidin-4-yl)piperidin-3-yl)-2-(2,5-dichlorophenylamino)acetamide)] | 100 to 999
O=C(CNc1cccc2ccccc12)NC1CCCN(c2ncnc3[nH]ccc23)C1 (stereo not shown) [Example 46, (N-(1-(7H-pyrrolo[2,3-d]pyrimidin-4-yl)piperidin-3-yl)-2-(naphthalen-1-ylamino)acetamide)] | < 100
O=C(CNc1cccc2c1CNC2=O)NC1CCCN(c2ncnc3[nH]ccc23)C1 (stereo not shown) [Example 54, (N-(1-(7H-pyrrolo[2,3-d]pyrimidin-4-yl)piperidin-3-yl)-2-(1-oxoisoindolin-4-ylamino)acetamide)] | > 10000
Cn1nc(C(C)(C)C)cc1NCC(=O)NC1CCCN(c2ncnc3[nH]ccc23)C1 (stereo not shown) [Example 57, (N-(1-(7H-pyrrolo[2,3-d]pyrimidin-4-yl)piperidin-3-yl)-2-(3-ten-butyl-1-methyl-1H-pyrazol-5-ylamino)acetamide)] | 1000 to 10000

Now from value to compound:

IC50 [nM] | Structure (SMILES)
100 to 999 | CC(C)(C)c1cccc(NCC(=O)NC2CCCN(c3ncnc4[nH]ccc34)C2)c1 (stereo not shown) [Example 18, (N-(1-(7H-pyrrolo[2,3-d]pyrimidin-4-yl)piperidin-3-yl)-2-(3-ten-butylphenylamino)acetamide)]
100 to 999 | O=C(CNc1ccccc1Cl)NC1CCCN(c2ncnc3[nH]ccc23)C1 (stereo not shown) [Example 20, (N-(1-(7H-pyrrolo[2,3-d]pyrimidin-4-yl)piperidin-3-yl)-2-(2-chlorophenylamino)acetamide)]
100 to 999 | O=C(CNc1ccc(Cl)cc1)NC1CCCN(c2ncnc3[nH]ccc23)C1 (stereo not shown) [Example 22, (N-(1-(7H-pyrrolo[2,3-d]pyrimidin-4-yl)piperidin-3-yl)-2-(4-chlorophenylamino)acetamide)]
100 to 999 | O=C(CNc1ccccc1F)NC1CCCN(c2ncnc3[nH]ccc23)C1 (stereo not shown) [Example 23, (N-(1-(7H-pyrrolo[2,3-d]pyrimidin-4-yl)piperidin-3-yl)-2-(2-fluorophenylamino)acetamide)]
> 10000 | NS(=O)(=O)c1cccc(NCC(=O)NC2CCCN(c3ncnc4[nH]ccc34)C2)c1 (stereo not shown) [Example 26, (N-(1-(7H-pyrrolo[2,3-d]pyrimidin-4-yl)piperidin-3-yl)-2-(3-sulfamoylphenylamino)acetamide)]
100 to 999 | O=C(CNc1cccc(Cl)c1Cl)NC1CCCN(c2ncnc3[nH]ccc23)C1 (stereo not shown) [Example 27, (N-(1-(7H-pyrrolo[2,3-d]pyrimidin-4-yl)piperidin-3-yl)-2-(2,3-dichlorophenylamino)acetamide)]
1000 to 10000 | CS(=O)(=O)c1cccc(NCC(=O)NC2CCCN(c3ncnc4[nH]ccc34)C2)c1 (stereo not shown) [Example 28, (N-(1-(7H-pyrrolo[2,3-d]pyrimidin-4-yl)piperidin-3-yl)-2-(3-(methylsulfonyl)phenylamino)acetamide)]
100 to 999 | Cc1cccc(NCC(=O)NC2CCCN(c3ncnc4[nH]ccc34)C2)c1 (stereo not shown) [Example 31, (N-(1-(7H-pyrrolo[2,3-d]pyrimidin-4-yl)piperidin-3-yl)-2-(m-tolylamino)acetamide)]
100 to 999 | COc1cccc(NCC(=O)NC2CCCN(c3ncnc4[nH]ccc34)C2)c1 (stereo not shown) [Example 32, (N-(1-(7H-pyrrolo[2,3-d]pyrimidin-4-yl)piperidin-3-yl)-2-(3-methoxyphenylamino)acetamide)]
1000 to 10000 | O=C(CNc1ccc(F)cc1)NC1CCCN(c2ncnc3[nH]ccc23)C1 (stereo not shown) [Example 33, (N-(1-(7H-pyrrolo[2,3-d]pyrimidin-4-yl)piperidin-3-yl)-2-(4-fluorophenylamino)acetamide)]
100 to 999 | COc1ccccc1NCC(=O)NC1CCCN(c2ncnc3[nH]ccc23)C1 (stereo not shown) [Example 37, (N-(1-(7H-pyrrolo[2,3-d]pyrimidin-4-yl)piperidin-3-yl)-2-(2-methoxyphenylamino)acetamide)]
< 100 | O=C(CNc1cccc(-c2ccccc2)c1)NC1CCCN(c2ncnc3[nH]ccc23)C1 (stereo not shown) [Example 39, (N-(1-(7H-pyrrolo[2,3-d]pyrimidin-4-yl)piperidin-3-yl)-2-(biphenyl-3-ylamino-)acetamide)]
< 100 | O=C(CNc1cccc(Br)c1)NC1CCCN(c2ncnc3[nH]ccc23)C1 (stereo not shown) [Example 40, (N-(1-(7H-pyrrolo[2,3-d]pyrimidin-4-yl)piperidin-3-yl)-2-(3-bromophenylamino)acetamide)]
< 100 | O=C(CNc1cccc2c1CCCC2)NC1CCCN(c2ncnc3[nH]ccc23)C1 (stereo not shown) [Example 41, (N-(1-(7H-pyrrolo[2,3-d]pyrimidin-4-yl)piperidin-3-yl)-2-(5,6,7,8-tetrahydronaphthalen-1-ylamino)acetamide)]
100 to 999 | O=C(CNc1cccc(Oc2ccccc2)c1)NC1CCCN(c2ncnc3[nH]ccc23)C1 (stereo not shown) [Example 42, (N-(1-(7H-pyrrolo[2,3-d]pyrimidin-4-yl)piperidin-3-yl)-2-(3-phenoxyphenylamino)acetamide)]
1000 to 10000 | CN(C)C(=O)c1cccc(NCC(=O)NC2CCCN(c3ncnc4[nH]ccc34)C2)c1 (stereo not shown) [Example 43, (3-(2-(1-(7H-pyrrolo[2,3-d]pyrimidin-4-yl)piperidin-3-ylamino)-2-oxoethylamino)-N,N-dimethylbenzamide)]
< 100 | O=C(CNc1cccc2c1CCC2)NC1CCCN(c2ncnc3[nH]ccc23)C1 (stereo not shown) [Example 45, (N-(1-(7H-pyrrolo[2,3-d]pyrimidin-4-yl)piperidin-3-yl)-2-(2,3-dihydro-1H-inden-4-ylamino)acetamide)]
1000 to 10000 | CC(C)Oc1cccc(NCC(=O)NC2CCCN(c3ncnc4[nH]ccc34)C2)c1 (stereo not shown) [Example 50, (N-(1-(7H-pyrrolo[2,3-d]pyrimidin-4-yl)piperidin-3-yl)-2-(3-isopropoxyphenylamino)acetamide)]
100 to 999 | Cc1c(Cl)cccc1NCC(=O)NC1CCCN(c2ncnc3[nH]ccc23)C1 (stereo not shown) [Example 52, (N-(1-(7H-pyrrolo[2,3-d]pyrimidin-4-yl)piperidin-3-yl)-2-(3-chloro-2-methylphenylamino)acetamide)]
100 to 999 | COc1c(Cl)cccc1NCC(=O)NC1CCCN(c2ncnc3[nH]ccc23)C1 (stereo not shown) [Example 53, (N-(1-(7H-pyrrolo[2,3-d]pyrimidin-4-yl)piperidin-3-yl)-2-(3-chloro-2-methoxyphenylamino)acetamide)]
< 100 | C#Cc1cccc(NCC(=O)NC2CCCN(c3ncnc4[nH]ccc34)C2)c1 (stereo not shown) [Example 55, (N-(1-(7H-pyrrolo[2,3-d]pyrimidin-4-yl)piperidin-3-yl)-2-(3-ethynylphenylamino)acetamide)]
100 to 999 | O=C(CNc1cccc(N2CCCC2)c1)NC1CCCN(c2ncnc3[nH]ccc23)C1 (stereo not shown) [Example 56, (N-(1-(7H-pyrrolo[2,3-d]pyrimidin-4-yl)piperidin-3-yl)-2-(3-(pyrrolidin-1-yl)phenylamino)acetamide)]

— patent US9029359B2, “Heteroaryl Btk inhibitors” (Biogen Idec MA, Inc., priority 2009, dated 2015)
